Assay results: paper PMC7577125 (Antimicrobial Agents and Chemotherapy, 2020)
Read-outs that look alike come from different tables or passages of the source.

Legend:
HBV Cp D29G = assay: microbe, parasite or virus in culture; type: cell-based, Hepatitis B virus
CYP1A2 = CYP1A2 (Homo sapiens, UniProt P05177); assay: biochemical
HBV = HBV infection of HepG2-NTCP cells; type: cell-based; settings: Hepatitis B virus
in vitro [1] = settings: for half-life at 1 μM: hepatocytes; for half-life at 0.5 μM: microsomes
Method: In vitro intrinsic clearance (CLint) was determined as follows. […] The calculated CLint was determined from the relationship CLint = k × (volume of incubation in ml/mg microsomal protein) × (mg protein in liver/g liver weight) × (g liver weight/kg body weight). The values for liver weights, body weights, as well as hepatic blood flows (QH) across species were obtained from data reported previously by Davies and Morris ([28]). Values for liver microsome protein/liver weight for mouse, rat, dog, and monkey were […] ([27]), and that for human was 33 mg/g. The calculation used for the prediction of hepatic clearance (CLpred) is CLpred = (QH × CLint)/(QH + CLint).

HBV Cp T109M = assay: microbe, parasite or virus in culture; type: cell-based, Hepatitis B virus
in vitro [2] = settings: mouse, plasma
HBV capsid DNA = assay: Incoming capsid assay in PHH cells; type: cell-based; settings: Hepatitis B virus, 3 h, read-out: Capsid DNA % of Control
[3] = test system: NrtI^R HBV (rtL180M/M204V); assay: microbe, parasite or virus in culture; type: cell-based, Hepatitis B virus
[4] = in vivo
[5] = Hepatitis B virus, Huh-7, read-out: Mean EC50

Sequence of CYP1A2 (P05177 whole entry): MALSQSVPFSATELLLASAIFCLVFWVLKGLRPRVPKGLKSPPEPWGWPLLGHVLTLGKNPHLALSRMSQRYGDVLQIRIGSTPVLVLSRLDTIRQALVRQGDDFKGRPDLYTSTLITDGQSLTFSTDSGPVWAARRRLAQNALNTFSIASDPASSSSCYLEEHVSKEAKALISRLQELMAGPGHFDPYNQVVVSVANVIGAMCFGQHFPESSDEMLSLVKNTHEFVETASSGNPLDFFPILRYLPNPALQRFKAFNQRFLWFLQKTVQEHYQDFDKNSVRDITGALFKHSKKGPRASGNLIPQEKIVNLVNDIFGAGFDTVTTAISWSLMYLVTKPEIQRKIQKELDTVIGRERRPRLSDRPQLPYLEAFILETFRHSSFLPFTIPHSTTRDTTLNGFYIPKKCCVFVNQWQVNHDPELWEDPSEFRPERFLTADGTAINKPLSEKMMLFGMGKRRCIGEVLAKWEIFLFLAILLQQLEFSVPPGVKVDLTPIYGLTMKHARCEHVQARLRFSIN

Which Fold shift (HBV Cp D29G; D29G vs wild type) does the source give for `O=C(NCc1cnc(C(F)(F)F)s1)c1ccc2c(c1)NC(=O)c1ccccc1S2(=O)=O` [ABI-H0731] here?
The Fold shift was 20 fold.

And the EC50 (HBV Cp D29G; [5])?
The EC50 was 2.96 µM.

What about the IC50 (CYP1A2) of the same compound?
Its IC50 is over 100 µM.

What about the EC50 (HBV; read-out: Mean EC50, HBeAg) of the same compound?
The EC50 was 4.95 µM.

And the EC50 (HBV; read-out: Mean EC50, HBsAg)?
The EC50 was 7.3 µM.

And the EC50 (HBV; read-out: Mean EC50, pgRNA)?
The EC50 was 2.68 µM.

And the EC50 (HBV; total intracellular viral DNA, read-out: Mean EC50, viral DNA)?
The EC50 was 0.307 ± 0.041 µM.

What about the “% LBF” value (in vitro [1]; cynomolgus monkey, 0.5 μM) of the same compound?
The value was 15%.

And the CLpred (in vitro [1]; cynomolgus monkey, 0.5 μM)?
Its CLpred is 4.7 mL/min/kg.

And the “% LBF” value (in vitro [1]; cynomolgus monkey, 1 μM)?
The value was 15%.

What about the CLpred (in vitro [1]; cynomolgus monkey, 1 μM) of the same compound?
Its CLpred is 4.7 mL/min/kg.

What about the “% LBF” value (in vitro [1]; dog, 0.5 μM) of the same compound?
Its value is 65%.

What about the CLpred (in vitro [1]; dog, 0.5 μM) of the same compound?
The CLpred was 20 mL/min/kg.

What about the “% LBF” value (in vitro [1]; dog, 1 μM) of the same compound?
The value was 81%.

And the CLpred (in vitro [1]; dog, 1 μM)?
Its CLpred is 25 mL/min/kg.

What about the half-life at 1 μM (in vitro [1]; dog) of the same compound?
Its half-life at 1 μM is 0.667 h.

And the half-life at 0.5 μM (in vitro [1]; dog)?
The half-life at 0.5 μM was 0.622 h.

And the “% LBF” value (in vitro [1]; human, 0.5 μM)?
Its value is 13%.

What about the CLpred (in vitro [1]; human, 0.5 μM) of the same compound?
The CLpred was 2.8 mL/min/kg.

And the “% LBF” value (in vitro [1]; human, 1 μM)?
The value was 11%.

And the CLpred (in vitro [1]; human, 1 μM)?
Its CLpred is 2.3 mL/min/kg.

And the half-life at 1 μM (in vitro [1]; human)?
Its half-life at 1 μM is 11.6 h.

And the half-life at 0.5 μM (in vitro [1]; human)?
The half-life at 0.5 μM was 6.27 h.

And the half-life at 1 μM (in vitro [1]; monkey)?
The half-life at 1 μM was 7.92 h.

What about the half-life at 0.5 μM (in vitro [1]; monkey) of the same compound?
Its half-life at 0.5 μM is 5.98 h.

What about the “% LBF” value (in vitro [1]; mouse, 0.5 μM) of the same compound?
The value was 21%.

What about the CLpred (in vitro [1]; mouse, 0.5 μM) of the same compound?
Its CLpred is 19 mL/min/kg.

And the half-life at 0.5 μM (in vitro [1]; mouse)?
The half-life at 0.5 μM was 2.33 h.

And the “% LBF” value (in vitro [1]; rat, 0.5 μM)?
The value was 12%.

And the CLpred (in vitro [1]; rat, 0.5 μM)?
The CLpred was 7.9 mL/min/kg.

And the half-life at 0.5 μM (in vitro [1]; rat)?
Its half-life at 0.5 μM is 4.62 h.

What about the EC50 (HBV Cp T109M; [5]) of the same compound?
The EC50 was over 10 µM.

What about the Fold shift (HBV Cp T109M; T109M vs wild type) of the same compound?
The Fold shift was over 68 fold.

What about the fraction unbound at 6 h (in vitro [2]) of the same compound?
Its fraction unbound at 6 h is 0.03 to 0.034.

What about the activity at […] (HBV capsid DNA; 0.37 μM) of the same compound?
Its activity at […] is 71%.

What about the activity at 1.11 µM (HBV capsid DNA; 1.11 μM) of the same compound?
The activity at 1.11 µM was 60%.

And the activity at 3.33 µM (HBV capsid DNA; 3.33 μM)?
Its activity at 3.33 µM is 32%.

What about the activity at 10 µM (HBV capsid DNA; 10.0 μM) of the same compound?
The activity at 10 µM was 9%.

And the Fold shift ([3]; HepG2-NrtI^R versus HepAD38 (wild type))?
Its Fold shift is 1.2 fold.

And the EC50 ([3]; Hepatitis B virus, 96 h, read-out: Mean EC50)?
Its EC50 is 0.262 ± 0.097 µM.

And the “target organ or dose-limiting toxicities” value [4]?
The value was “no specific target organ or dose-limiting toxicities”.
